Experiment: Proton NMR stability check in deuterium oxide after heating and after sunlight exposure
Assay type: physicochemical
Settings: with table sugar, Equal, Sweet'N Low and Splenda
Experimental: All ^1H NMR spectra were obtained on a Varian Mercury 300 NMR spectrometer operating at ambient temperature. Solutions were prepared in deuterium oxide solvent (isotopically labeled water). Samples were prepared by dissolving a measured amount of solid in sufficient solvent to produce a total volume of approximately 1 mL. Initial samples were prepared just before spectra were obtained in order to minimize possible premature hydrolysis or attack by microbes in the case of sugar solutions. Samples were later re-examined after heating at 70.0 to 92.0° C. (158 to 198° F.) for 98 minutes and then again after being stored outside on the roof exposed to Central Florida sunlight and heat for 47.3 hours.

O=C1O[C@H]([C@@H](O)CO)C(O)=C1O [Vit. C, ascorbic acid]
chemical compatibility with sweeteners: chemically compatible

Reference: patent publication US20050214412A1, “APPARATUS AND METHOD FOR DELIVERING NUTRITIONAL SUPPLEMENTS WITH BEVERAGE SWEETENERS” (priority 2004, published 2005)
